In experiment [1] the test system is HUVEC. Kind of experiment: Cytoprotective effect against high glucose-induced oxidative stress in HUVEC assessed as cell viability at 1 uM incubated by MTT assay (reference value: 72.1 to 77.9%). The settings on record: Homo sapiens, read-out: Activity. In kind it is functional. For orientation: Formazan colour is commonly taken as a measure of viable cells.
Experiment [2] relates to HUVEC. Kind of experiment: Cytoprotective effect against high glucose-induced oxidative stress in HUVEC assessed as cell viability at 5 uM incubated by MTT assay (reference value: 72.1 to 77.9%). Particulars: Homo sapiens, read-out: Activity. In kind it is functional.

Among the data in ChEMBL document CHEMBL4392857, “Isolation, Chiral-Phase Resolution, and Determination of the Absolute Configurations of a Complete Series of Stereoisomers of a Rearranged Acetophenone with Three Stereocenters” (2019) are viability values, retold here.

`COC(=O)[C@@]1(O)C(=O)[C@@]2(CC=C(C)C)C[C@H](O)C(C)(C)OC2=C1C(C)=O`: in the experiment on HUVEC [1], the viability at 1 µM was 79.9%. In addition, in the experiment on HUVEC [2], the viability at 5 µM was 82%.
The like results for `COC(=O)[C@@]1(O)C(=O)[C@@]2(CC=C(C)C)C[C@@H](O)C(C)(C)OC2=C1C(C)=O` were, in that order, 101% and 101%.
The like results for `COC(=O)[C@]1(O)C(=O)[C@]2(CC=C(C)C)C[C@@H](O)C(C)(C)OC2=C1C(C)=O` were, in that order, 103% and 104%.
Consider `COC(=O)[C@@]1(O)C(=O)[C@]2(CC=C(C)C)C[C@@H](O)C(C)(C)OC2=C1C(C)=O`, for which the viability at 1 µM in the experiment with HUVEC [1] was 75.6%. Also, the viability at 5 µM with HUVEC [2] came out at 62.7%.
The like results for `COC(=O)[C@@]1(O)C(=O)[C@]2(CC=C(C)C)C[C@H](O)C(C)(C)OC2=C1C(C)=O` were, in that order, 103% and 104%.
As for `COC(=O)[C@]1(O)C(=O)[C@@]2(CC=C(C)C)C[C@@H](O)C(C)(C)OC2=C1C(C)=O`, the viability at 1 µM with HUVEC [1] came out at 79.9%. Also, the viability at 5 µM in the experiment with HUVEC [2] is 82%.
The like results for `COC(=O)[C@]1(O)C(=O)[C@]2(CC=C(C)C)C[C@H](O)C(C)(C)OC2=C1C(C)=O` were, in that order, 94.2% and 93%.
The like results for `COC(=O)[C@]1(O)C(=O)[C@@]2(CC=C(C)C)C[C@H](O)C(C)(C)OC2=C1C(C)=O` were, in that order, 71.7% and 65.1%.
The like results for `Oc1ccc(/C=C/c2cc(O)cc(O)c2)cc1` [RESVERATROL] were, in that order, 86.4% and 103%.
